The source of these data is patent publication US20230287027A1, “ADJUVANT WITH TLR4 AGONIST ACTIVITY” (Sumitomo Pharma Co., Ltd, priority 2020, published 2023).

Broadly, the EC50 is the concentration at which the effect is half-maximal. Read a low EC50 as greater potency.

The target in this experiment is T1, mouse TLR4 (Mus musculus, UniProt Q9JHF9+Q9QUK6).
T1 construct: host or cells: HEK-Blue mTLR4 cell line
T1 sequence (Q9QUK6 26-835): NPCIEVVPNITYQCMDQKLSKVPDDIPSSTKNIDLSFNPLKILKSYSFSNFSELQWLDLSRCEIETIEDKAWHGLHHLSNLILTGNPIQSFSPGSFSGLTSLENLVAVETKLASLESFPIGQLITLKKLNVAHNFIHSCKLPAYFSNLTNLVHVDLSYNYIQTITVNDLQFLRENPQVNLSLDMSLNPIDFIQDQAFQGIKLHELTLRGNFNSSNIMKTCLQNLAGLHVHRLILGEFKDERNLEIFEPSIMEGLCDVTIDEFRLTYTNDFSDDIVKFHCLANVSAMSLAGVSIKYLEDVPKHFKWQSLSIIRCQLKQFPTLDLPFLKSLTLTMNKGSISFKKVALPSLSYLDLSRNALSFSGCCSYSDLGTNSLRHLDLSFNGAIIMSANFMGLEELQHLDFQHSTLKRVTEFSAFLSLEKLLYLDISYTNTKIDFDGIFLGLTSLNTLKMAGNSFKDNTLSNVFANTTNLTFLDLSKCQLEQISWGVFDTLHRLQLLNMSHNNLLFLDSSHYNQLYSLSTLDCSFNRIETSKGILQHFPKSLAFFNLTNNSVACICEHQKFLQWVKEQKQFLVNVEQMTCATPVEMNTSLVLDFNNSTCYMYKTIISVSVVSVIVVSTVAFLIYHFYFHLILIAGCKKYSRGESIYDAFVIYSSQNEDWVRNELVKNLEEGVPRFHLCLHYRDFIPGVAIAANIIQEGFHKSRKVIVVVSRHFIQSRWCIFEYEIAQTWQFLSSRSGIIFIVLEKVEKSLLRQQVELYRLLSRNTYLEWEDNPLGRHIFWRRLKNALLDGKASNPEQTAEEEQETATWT
T1 sequence (Q9JHF9 19-160): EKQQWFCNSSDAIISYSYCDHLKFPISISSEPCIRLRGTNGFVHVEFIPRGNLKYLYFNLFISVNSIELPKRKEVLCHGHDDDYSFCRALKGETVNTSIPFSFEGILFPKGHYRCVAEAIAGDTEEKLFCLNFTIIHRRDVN
In words: Mouse TLR4 reporter gene assay (Test 2). The experiment is classed as cell-based. The note with it: HEK-Blue mTLR4 cell line, SEAP reporter, 37° C. 16-20 hours, 0.1% DMSO; concentration giving half of maximal SEAP level induced with LPS. The text has this:
Mouse TLR4 Reporter Gene Assay
HEK-Blue™ mTLR4 cell line (Invivogen) is a stably co-transfected cell line which expresses mouse TLR4, MD2, CD14 and secretory SEAP reporter gene under the transcriptional regulation of an NF-κB response element. The TLR4 expression of the cell line has been already tested by RT-PCR, flow cytometry. Transfectants with stable expression were selected using the antibiotic HEK-Blue™ Selection. TLR signaling leads to the translocation of NF-κB and the activation of the promoter results in expression of the SEAP gene. TLR4-specific activation was assessed by determining the level of SEAP produced following incubation of the cells at 37° C. for 16-20 hours with each compound prepared in Examples and Reference examples in the presence of 0.1% (v/v) DMSO. The mouse TLR4 activity for the present compound was assessed by mouse TLR4 reporter gene assay, and the concentration of the compound concentration which produced half of the maximal level of SEAP induced with LPS was determined as EC50.
A general note: In a reporter assay the amount or activity of a reporter protein is the signal.

Regarding `CCCCCCCCCCC[C@H](CC(=O)NC1C(OC[C@@H](NC(=O)C[C@@H](CCCCCCCCCCC)OC(=O)CCCCCCCCC)C(=O)O)OC(CO)C(OP(=O)(O)O)C1OC(=O)C[C@@H](CCCCCCCCCCC)OC(=O)CCCCCCCCc1ccccc1)OC(=O)CCCCCCCCC` (stereo partly drawn) [Reference example 9, (2R)-2-{[(3R)-3-(Decanoyloxy)tetradecanoyl]amino}-3-{[3-{[(3R)-3-(decanoyloxy)tetradecanoyl]amino}-6-(hydroxymethyl)-4-({(3R)-3-[(9-phenylnonanoyl)oxy]tetradecanoyl}oxy)-5-(phosphonooxy)oxan-2-yl]oxy}propanoic acid, reference compound], the EC50 is 0.0284 µM. `CCCCCCCCCCC[C@H](CC(=O)NC1C(OC[C@H](NC(=O)C[C@@H](CCCCCCCCCCC)OC(=O)CCCCCCCCC)C(=O)O)OC(CO)C(O)C1OC(=O)C[C@@H](CCCCCCCCCCC)OC(=O)CCCCCCCCc1ccccc1)OC(=O)CCCCCCCCC` (stereo partly drawn) [Example 2, (2S)-2-{[(3R)-3-(decanoyloxy)tetradecanoyl]amino}-3-{[3-{[(3R)-3-(decanoyloxy)tetradecanoyl]amino}-5-hydroxy-6-(hydroxymethyl)-4-({(3R)-3-[(9-phenylnonanoyl)oxy]tetradecanoyl}oxy)oxan-2-yl]oxy}propanoic acid]: it took 0.0143 µM to reach a half-maximal effect (EC50).

With `CCCCCCCCCCC[C@H](CC(=O)NC1C(OC[C@@H](NC(=O)C[C@@H](CCCCCCCCCCC)OC(=O)CCCCCCCCC)C(=O)O)OC(CO)C(O)C1OC(=O)C[C@@H](CCCCCCCCCCC)OC(=O)CCCCCCCCc1ccccc1)OC(=O)CCCCCCCCC` (stereo partly drawn) [Example 1, (2R)-2-{[(3R)-3-(Decanoyloxy)tetradecanoyl]amino}-3-{[3-{[(3R)-3-(decanoyloxy)tetradecanoyl]amino}-5-hydroxy-6-(hydroxymethyl)-4-({(3R)-3-[(9-phenylnonanoyl)oxy]tetradecanoyl}oxy)oxan-2-yl]oxy}propanoic acid], the EC50 is 0.0143 µM.
